Measurements as given in patent publication US9283242B2, “Uses of dihydro bases” (priority 2013, dated 2016).
“Also recorded” adds a separate entry of the source.

Assays:
[1] = Variable temperature FTIR and 2D IR, tautomerism in aqueous solution; format: physicochemical; conditions: deuterated 0.5 M phosphate buffer pD 7.9, 10-80° C.
Protocol: For both 1D FTIR and 2D IR experiments, the H/D exchanged KP1212 was dissolved at a concentration of 20 mg/ml (88 mM) in 0.5 M phosphate buffer pD (pH reading in D2O) 7.9. About 25 μl of sample solution was sandwiched between two CaF2 windows separated by a 50 μm TEFLON spacer. Variable-temperature FTIR spectra were collected using Nicolet 380 FTIR spectrometer at 1.0 cm^−1 resolution with 16 scans per spectrum. Spectra for both the sample and the D2O were collected with the same procedure and the solvent spectra were subtracted from the sample spectra.
Absorptive 2D IR spectra were collected using a 2D IR spectrometer as described in detail previously (Chung, H. S., Khalil, M., Smith, A. W. & Tokmakoff, A. Transient two-dimensional IR spectrometer for probing nanosecond temperature-jump kinetics. Rev. Sci. Instrum. 78, 063101 (2007)). The relative polarizations of the pulses were set to be perpendicular (ZZYY). The waiting time (τ2) between the first two pulses and the third pulse was fixed at 150 fs. The coherence time between the first and the second pulse was scanned in 4 fs steps from −60 fs to 2.8 ps and 2.0 ps for rephasing and non-rephasing spectra, respectively. […]
2D IR spectroscopy is analogous to 2D NMR: sequences of ultrafast IR pulses are employed to excite molecular vibrations, and the energy flow from one vibration to others is then detected. […]

[2] = molecular target: PfuTurbo DNA polymerase (Pyrococcus furiosus, UniProt P61875); experiment: In vitro polymerase extension assay on KP1212-containing M13 template; format: biochemical
Sequence of PfuTurbo DNA polymerase (P61875 whole entry): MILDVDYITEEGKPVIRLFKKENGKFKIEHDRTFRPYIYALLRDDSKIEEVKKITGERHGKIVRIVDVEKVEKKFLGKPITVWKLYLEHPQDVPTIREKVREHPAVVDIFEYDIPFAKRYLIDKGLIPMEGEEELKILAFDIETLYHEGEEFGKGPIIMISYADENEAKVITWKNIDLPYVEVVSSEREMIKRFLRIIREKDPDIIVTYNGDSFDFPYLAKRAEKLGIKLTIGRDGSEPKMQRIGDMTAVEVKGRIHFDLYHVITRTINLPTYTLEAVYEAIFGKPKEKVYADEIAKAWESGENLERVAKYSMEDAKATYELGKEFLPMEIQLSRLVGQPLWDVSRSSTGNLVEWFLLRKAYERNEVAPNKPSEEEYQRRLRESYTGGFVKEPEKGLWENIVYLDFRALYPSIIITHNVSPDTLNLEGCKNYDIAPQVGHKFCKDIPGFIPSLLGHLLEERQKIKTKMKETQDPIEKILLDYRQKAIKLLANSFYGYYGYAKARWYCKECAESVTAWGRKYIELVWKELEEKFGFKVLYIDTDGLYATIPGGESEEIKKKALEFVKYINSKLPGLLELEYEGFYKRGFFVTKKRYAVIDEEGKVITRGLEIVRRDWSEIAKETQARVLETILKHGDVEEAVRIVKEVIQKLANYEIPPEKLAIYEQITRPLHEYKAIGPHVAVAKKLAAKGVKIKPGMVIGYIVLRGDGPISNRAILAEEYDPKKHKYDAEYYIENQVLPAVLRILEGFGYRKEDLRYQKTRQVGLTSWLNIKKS
Protocol: (A) A 16mer oligonucleotide containing KP1212 (SEQ ID NO: 1) (or controls) at a specific site was chemically synthesized and ligated into the genome of an M13 bacteriophage. (B) The KP1212-containing M13 genomes were replicated within E. coli cells. Progeny were analyzed to characterize the amount and the type of nucleic acid base placed opposite the lesion during replication. The relative reduction in lesion vs. non-lesion competitor progeny formation was used as an estimate of the extent to which KP1212 and m3C inhibited DNA replication. (C) The KP1212-containing M13 genomes were used as templates for in vitro polymerase extension assays, carried out at 72° C., using the high-fidelity DNA polymerase PfuTurbo. (D) Bypass efficiency (CRAB assay) of KP1212, m3C, C in HK81 (AlkB^+) and HK82 (AlkB^−) E. coli cells. m3C and undamaged C were used as controls. Genomes were made and normalized to one another before being combined with a competitor genome. Each mixture was transformed into the corresponding cell strain in triplicate, and bypass efficiency was calculated by using the undamaged C genome as 100% bypass, with error bars representing one standard deviation. (E) Mutagenesis (REAP assay) of KP1212, m3C, and C in HK82 (AlkB^−) E. coli cells. m3C, undamaged C, and an approximately equimolar mixture of genomes carrying unmodified G/A/T/C bases at the site of inquiry (denoted as GATC) were used as controls. Genomes containing the lesions of interest were transfected into E. coli in triplicate.
The single-stranded, lesion-containing genomes, constructed above were also used as templates for in vitro polymerase extension assays. Fifty fmol of each genome were mixed with 50 pmol of REAP forward and reverse primers, 1.25 U Pfu Turbo DNA polymerase and 5 nmol of each dNTP in 1×Pfu Turbo buffer. […] Subsequently, 29 PCR cycles amplified the newly formed strand and generated a product that was then analyzed using the exact downstream steps of the REAP assay described above. […]

[3] = Phase I and II clinical trials; cited from earlier work
[4] = in vitro, 72° C., PfuTurbo DNA polymerase (FIG. 18C)

NC1=NC(=O)N([C@H]2C[C@H](O)[C@@H](CO)O2)CN1 [KP1212, 5-aza-5,6-dihydro-2′-deoxycytidine]
tautomerism by FTIR and 2D IR [1]: multiple tautomeric forms; also recorded: different tautomeric forms
pH dependence of mispairing frequency ([2]; in vitro polymerase extension reaction, pH 7.0 and 7.8, preliminary studies): did not vary significantly
A placed opposite KP1212 [2, 4]: 9.5 % of the time
G placed opposite KP1212 [2, 4]: 90.5 % of the time
safety in clinical trials [3]: safe
